Test results as given in patent US10745428B2, “Antiviral phosphodiamide prodrugs of tenofovir” (Merck Sharp & Dohme Corp., priority 2015, dated 2020).
pIC50: −log10 of the molar value. Read-outs that look alike come from different tables or passages of the source.

Legend:
[1] = Prodrug stability assay in bio-relevant media (FaSSIF with Pancreatin), GI Tract stability; format: in vitro ADME; settings: HPLC peak area of prodrug at 5 h divided by area at 0 h; 0.5 mg/mL Pancreatin in FaSSIF, 37° C.
Procedure: The following assay was employed to evaluate the stability of the prodrugs in simulated gastrointestinal tract conditions. Preparation of fasted state simulated intestinal fluid (FaSSIF) using Phares SIF Powder was carried out according to protocols from Phare Drug Delivery AG (Baselland, Switzerland). For sample preparation, 10 μL stock solutions (10 mM) of prodrug substance in DMSO was added to 990 μL of 0.5 mg/mL Pancreatin solution (Fisher CAS#8049-47-6) in FaSSIF. Two samples were prepared for each compound. If the sample was a clear solution, it was directly analyzed by HPLC. If the sample was not clear, the sample was diluted with 100% ACN, maintained at 37° C. and observed 5 h later. If the sample was clear, HPLC analysis was directly performed. If the sample was still not clear, the sample was diluted with 100% ACN and assayed by HPLC. All the samples were vortexed for 3 min and observed before injection. For the diluted samples, the area is multiplied by a factor when the data is analyzed. The analysis was carried out with an Agilent 1100 series HPLC with autosampler. The column was usually a Poroshell 120 EC-C18, 4.6×50 mm, 2.7 μm. The flow rate was 1.8 mL/min, and the injection volume was 5 or 10 μL. UV detection was in the range 210-400 nm. The mobile phase consisted of solvent A (water plus 10 mM tetrabutylammonium bromide) and solvent B (acetonitrile) with a gradient of 90% solvent A at 0 min, changing to 95% solvent B over 6 min, maintaining for 1.5 min, then reverting to 90% solvent A over 1.6 min. The HPLC peak area of the prodrug at 5 h was divided by the HPLC peak area of the prodrug at 0 h, to generate the % claimed parent ratio, which is summarized in Table 2. for GI Tract stability.

HIV-1 (H9/IIIB strain) = assay: Multiple round HIV-1 infection assay (Viking assay), HIV-1 replication in MT4-GFP cells; format: cell-based; settings: MT4-GFP cells infected with HIV-1 H9/IIIB
Procedure: The antiviral activity of the tenofovir prodrugs of the Examples herein was assessed in an assay that measures the rate of replication of HIV in cell culture, termed the Viking assay (VIral KINetics in Green cells) and performed as follows. HIV-1 replication was monitored using MT4-gag-GFP clone D3 (hereafter designated MT4-GFP; GFP is green fluorescent protein), which are MT-4 cells modified to harbor a GFP reporter gene, the expression of which is dependent on the HIV-1 expressed proteins tat and rev; see Wang Y-J et al., 2010J Virological Methods 165:230-237. Productive infection of an MT4-GFP cell with HIV-1 results in GFP expression approximately 24 h post-infection. MT4-GFP cells were maintained at 37° C./5% CO2/90% relative humidity in RPMI 1640 supplemented with 10% fetal bovine serum, 100 U/ml penicillin/streptomycin, and 400 μg/ml G418 to maintain the reporter gene. For infections, MT4-GFP cells were placed in the same medium lacking G418 and infected overnight with HIV-1 (H9/IIIB strain) virus at an approximate multiplicity of infection of 0.01 in the same incubation conditions. Cells were then washed and re-suspended in either RPMI 1640 supplemented with 10% or 50% normal human serum (NHS) at 1.6×10^5 cells/mL (10% NHS or 50% NHS, respectively). Compound plates were prepared by dispensing compounds dissolved in DMSO into wells of 384 well poly-D-lysine-coated plates (0.2 μl/well) using an ECHO acoustic dispenser. Each compound was tested in a 10-point serial 3-fold dilution (typical final concentrations: 8.4 μM-0.42 nM). Controls included no inhibitor (DMSO only) and a combination of three antiviral agents (efavirenz, indinavir, and an integrase strand transfer inhibitor at final concentrations of 4 μM each). Cells were added (50 μL/well) to compound plates and the infected cells were maintained at 37′C/5% CO2/90% relative humidity.
Infected cells were quantified at two time points, ˜48 h and ˜72 h post-infection, by counting the number of green cells in each well using an Acumen eX3 scanner. The increase in the number of green cells over ˜24 h period gives the reproductive ratio, R0, which is typically 5-15 and has been shown experimentally to be in logarithmic phase (data not shown). R0 is calculated for each well, and IC50s determined by non-linear 4-parameter curve fitting.

[2] = Human immunodeficiency virus 1, IIIB, 10% normal human serum, read-out: Viking, IC50 (10% NHS)
[3] = Human immunodeficiency virus 1, IIIB, 50% normal human serum, read-out: Viking, IC50 (50% NHS)
[4] = 10% normal human serum, read-out: Viking, IC50 (10% NHS)
[5] = 50% normal human serum, read-out: Viking, IC50 (50% NHS)

| GI Tract stability [1] [%] | Structure (SMILES) | pIC50 (HIV-1 (H9/IIIB strain); [2]) | pIC50 (HIV-1 (H9/IIIB strain); [3]) | pIC50 (HIV-1 (H9/IIIB strain); [4]) | pIC50 (HIV-1 (H9/IIIB strain); [5]) |
| --- | --- | --- | --- | --- | --- |
| 99.1 | CCCCCCOC(=O)[C@@H](C)NP(=O)(CO[C@H](C)Cn1cnc2c(N)ncnc21)NC(C)(C)C(=O)OCCCCCC (single isomer, unassigned) [Example 13A] | 8.14 | 7.39 |  |  |
| 49.3 | CCCCCOC(=O)C(C)(C)NP(=O)(CO[C@H](C)Cn1cnc2c(N)ncnc21)N[C@H](C)C(=O)OC1CCC1 (single isomer, unassigned) [Example 19B] |  |  | 8.60 | 7.97 |
| 95.9 | CC(C)OC(=O)C(C)(C)NP(=O)(CO[C@H](C)Cn1cnc2c(N)ncnc21)N[C@H](C)C(=O)OC1CCCC1 (single isomer, unassigned) [Example 1B] |  |  | 8.62 | 8.21 |
| 92.5 | CCCCCOC(=O)[C@H]1CCCN1P(=O)(CO[C@H](C)Cn1cnc2c(N)ncnc21)NC(C)(C)C(=O)OCCCCC (single isomer, unassigned) [Example 26B] |  |  | 8.36 | 7.71 |
| 98.1 | CC(C)COC(=O)C(C)(C)NP(=O)(CO[C@H](C)Cn1cnc2c(N)ncnc21)N[C@H](C)C(=O)OC1CCC1 (single isomer, unassigned) [Example 20A] |  |  | 8.23 | 7.76 |
| 51.2 | CCCCCCOC(=O)C(C)(C)NP(=O)(CO[C@H](C)Cn1cnc2c(N)ncnc21)N[C@H](C)C(=O)OC1CCCCC1 (single isomer, unassigned) [Example 15B] |  |  | 9.15 | 8.68 |
| 73.9 | CCCCCOC(=O)C(C)(C)NP(=O)(CO[C@H](C)Cn1cnc2c(N)ncnc21)N[C@H](C)C(=O)OCCCC (single isomer, unassigned) [Example 9B] |  |  | 9.00 | 8.38 |
| 83.8 | CCCCCCOC(=O)[C@@H](C)NP(=O)(CO[C@H](C)Cn1cnc2c(N)ncnc21)NC(C)(C)C(=O)OCCCCCC (single isomer, unassigned) [Example 13B] |  |  |  |  |
| 100 | CCCCCOC(=O)C(C)(C)NP(=O)(CO[C@H](C)Cn1cnc2c(N)ncnc21)N[C@H](C)C(=O)OCCCC (single isomer, unassigned) [Example 9A] |  |  | 8.21 | 7.70 |
| 66.8 | CCCCCCOC(=O)C(C)(C)NP(=O)(CO[C@H](C)Cn1cnc2c(N)ncnc21)N[C@H](C)C(=O)OCC(C)C (single isomer, unassigned) [Example 10B] |  |  | 9.15 | 8.70 |
| 82.7 | CCCCCOC(=O)C(C)(C)NP(=O)(CO[C@H](C)Cn1cnc2c(N)ncnc21)N[C@H](C)C(=O)OC1CCCC1 (single isomer, unassigned) [Example 24B] |  |  | 9.05 | 8.41 |
| 47.2 | CCCCCCOC(=O)C(C)(C)NP(=O)(CO[C@H](C)Cn1cnc2c(N)ncnc21)N[C@H](C)C(=O)OC1CCCC1 (single isomer, unassigned) [Example 14B] |  |  | 9.22 | 8.70 |
| 94.4 | CCCCCOC(=O)[C@@H](C)N(C)P(=O)(CO[C@H](C)Cn1cnc2c(N)ncnc21)NC(C)(C)C(=O)OCCCCC (single isomer, unassigned) [Example 25B] | 8.44 | 8.02 |  |  |
| 94.2 | CCCCCOC(=O)C(C)(C)NP(=O)(CO[C@H](C)Cn1cnc2c(N)ncnc21)N[C@H](C)C(=O)OC(C)C (single isomer, unassigned) [Example 17B] |  |  | 8.89 | 8.28 |
| 93.5 | C[C@H](Cn1cnc2c(N)ncnc21)OCP(=O)(N[C@H](C)C(=O)OC1CCCC1)NC(C)(C)C(=O)OC1CCCCC1 (single isomer, unassigned) [Example 27B] |  |  | 8.80 | 8.33 |
| 98.2 | CCCOC(=O)C(C)(C)NP(=O)(CO[C@H](C)Cn1cnc2c(N)ncnc21)N[C@H](C)C(=O)OC1CCC1 (single isomer, unassigned) [Example 22A] |  |  | 7.94 | 7.29 |
| 97.4 | CC(C)OC(=O)C(C)(C)NP(=O)(CO[C@H](C)Cn1cnc2c(N)ncnc21)N[C@H](C)C(=O)OC1CCC1 (single isomer, unassigned) [Example 18B] |  |  | 7.96 | 7.59 |
| 100 | CCCCCCOC(=O)C(C)(C)NP(=O)(CO[C@H](C)Cn1cnc2c(N)ncnc21)N[C@H](C)C(=O)OC(C)C (single isomer, unassigned) [Example 2A] |  |  | 7.80 | 7.11 |
| 95.6 | CCCCOC(=O)[C@@H](C)NP(=O)(CO[C@H](C)Cn1cnc2c(N)ncnc21)NC(C)(C)C(=O)OC(C)C (single isomer, unassigned) [Example 3B] |  |  | 8.42 | 7.69 |
| 100 | CCCCCOC(=O)C(C)(C)NP(=O)(CO[C@H](C)Cn1cnc2c(N)ncnc21)N[C@H](C)C(=O)OC(C)C (single isomer, unassigned) [Example 17A] |  |  | 7.80 | 7.11 |
| 90.2 | C[C@H](Cn1cnc2c(N)ncnc21)OCP(=O)(N[C@H](C)C(=O)OC1CCCC1)NC(C)(C)C(=O)OC1CCC1 (single isomer, unassigned) [Example 28B] |  |  | 8.57 | 8.48 |
| 97.8 | CCCCCOC(=O)C(C)(C)NP(=O)(CO[C@H](C)Cn1cnc2c(N)ncnc21)N[C@H](C)C(=O)OC1CCCC1 (single isomer, unassigned) [Example 24A] |  |  | 8.49 | 7.51 |
| 97.8 | CCCCCOC(=O)[C@@H](C)NP(=O)(CO[C@H](C)Cn1cnc2c(N)ncnc21)NC(C)(C)C(=O)OCCCCC (single isomer, unassigned) [Example 16B] |  |  | 9.05 | 8.38 |
| 94.2 | CCCCCCOC(=O)C(C)(C)NP(=O)(CO[C@H](C)Cn1cnc2c(N)ncnc21)N[C@H](C)C(=O)OC(C)C (single isomer, unassigned) [Example 2B] |  |  | 8.89 | 8.28 |
| 72.6 | CCCOC(=O)C(C)(C)NP(=O)(CO[C@H](C)Cn1cnc2c(N)ncnc21)N[C@H](C)C(=O)OC1CCC1 (single isomer, unassigned) [Example 22B] |  |  | 8.36 | 7.81 |
| 58.6 | CCCCOC(=O)C(C)(C)NP(=O)(CO[C@H](C)Cn1cnc2c(N)ncnc21)N[C@H](C)C(=O)OC1CCC1 (single isomer, unassigned) [Example 23B] |  |  | 8.22 | 7.87 |
| 71.0 | CC(C)COC(=O)C(C)(C)NP(=O)(CO[C@H](C)Cn1cnc2c(N)ncnc21)N[C@H](C)C(=O)OC1CCC1 (single isomer, unassigned) [Example 20B] |  |  | 8.77 | 8.23 |
